These results are taken from the supplement of paper PMC6045584.

Compound in one assay: COc1cc2c(cc1O)CC[C@@H]1[C@@H]2CC[C@]2(C)[C@@H](O)CC[C@@H]12 [2-METHOXYESTRADIOL]
Nature of the assay: surviving fraction relative to DMSO-only wells; higher = less growth inhibition. The settings on record: exposure time: 5 days. An outline of the steps: (§1)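 Luminescence normalised to the median of DMSO-only wells defines surviving fraction, with viability read by CellTiter-Glo. Signal was recorded after 10 minutes at room temperature, once log-phase tumour cell lines seeded at 250–500 cells per well in 384-well plates had spent 24 hours settling and then five days under continuous exposure to inhibitors at 0.5, 1, 5, 10, 50, 100, 500 and 1000 nM.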

Compound in the next assay: C=CCNC1=C2C[C@@H](C)C[C@H](OC)[C@H](O)[C@@H](C)/C=C(\C)[C@H](OC(N)=O)[C@@H](OC)/C=C\C=C(/C)C(=O)NC(=CC1=O)C2=O [17-AAG]
Described as above. The note with it: exposure time: 5 days. In short, it runs like this:
as §1

± gives the standard deviation of the averaged measurements.

As for U2OS BONE, the surviving fraction came out at 1.03 ± 0.016 in the assay with 2-METHOXYESTRADIOL (0.5 nM); 1.013 ± 0.0046 with 2-METHOXYESTRADIOL (1 nM); 1.02 ± 0.043 with 2-METHOXYESTRADIOL (5 nM); 1.02 ± 0.017 with 2-METHOXYESTRADIOL (10 nM); 1.06 ± 0.017 in the assay with 2-METHOXYESTRADIOL (50 nM); 1.01 ± 0.021 in the assay with 2-METHOXYESTRADIOL (100 nM). In addition, the surviving fraction with 2-METHOXYESTRADIOL (500 nM) is 0.681 ± 0.02; with 2-METHOXYESTRADIOL (1000 nM), 0.359 ± 0.033; with 17-AAG (0.5 nM) it was 0.943 ± 0.049; in the assay with 17-AAG (1 nM), 0.9303 ± 0.0058; in the assay with 17-AAG (5 nM) it was 0.991 ± 0.018; in the assay with 17-AAG (10 nM) it was 0.886 ± 0.05. Also, the surviving fraction was 0.627 ± 0.0092 with 17-AAG (50 nM), 0.143 ± 0.004 with 17-AAG (100 nM), 0.0713 ± 0.0021 with 17-AAG (500 nM) and 0.0763 ± 0.0032 with 17-AAG (1000 nM).

Consider H23 LUNG, for which the surviving fraction with 2-METHOXYESTRADIOL (0.5 nM) amounted to 0.97 ± 0.025; with 2-METHOXYESTRADIOL (1 nM) it was 0.949 ± 0.017; with 2-METHOXYESTRADIOL (5 nM) it was 1 ± 0.035; in the assay with 2-METHOXYESTRADIOL (10 nM) it was 0.963 ± 0.039; with 2-METHOXYESTRADIOL (50 nM), 0.975 ± 0.06; with 2-METHOXYESTRADIOL (100 nM) it was 1.03 ± 0.021. For the same test system, the surviving fraction was found to be 0.749 ± 0.019 in the assay with 2-METHOXYESTRADIOL (500 nM); 0.265 ± 0.004 with 2-METHOXYESTRADIOL (1000 nM); 0.949 ± 0.026 with 17-AAG (0.5 nM); 0.939 ± 0.01 with 17-AAG (1 nM); 0.9313 ± 0.0035 with 17-AAG (5 nM); 0.727 ± 0.03 with 17-AAG (10 nM). Also, the surviving fraction with 17-AAG (50 nM) amounted to 0.234 ± 0.0085; in the assay with 17-AAG (100 nM) it was 0.11 ± 0.014; with 17-AAG (500 nM), 0.0333 ± 0.0011; with 17-AAG (1000 nM), 0.0323 ± 0.0025.

As for CAL72 BONE, the surviving fraction with 2-METHOXYESTRADIOL (0.5 nM) turned out to be 1.03 ± 0.092; in the assay with 2-METHOXYESTRADIOL (1 nM) it was 0.999 ± 0.14; with 2-METHOXYESTRADIOL (5 nM), 1.01 ± 0.11; in the assay with 2-METHOXYESTRADIOL (10 nM), 1.02 ± 0.13; with 2-METHOXYESTRADIOL (50 nM), 1.05 ± 0.099; in the assay with 2-METHOXYESTRADIOL (100 nM), 1.02 ± 0.18. Moreover, the surviving fraction with 2-METHOXYESTRADIOL (500 nM) stood at 0.848 ± 0.12; with 2-METHOXYESTRADIOL (1000 nM), 0.447 ± 0.2; with 17-AAG (0.5 nM), 1.05 ± 0.064; with 17-AAG (1 nM) it was 1 ± 0.016; in the assay with 17-AAG (5 nM), 0.982 ± 0.016; in the assay with 17-AAG (10 nM), 1 ± 0.017. The surviving fraction with 17-AAG (50 nM) came out at 1.15 ± 0.032; in the assay with 17-AAG (100 nM), 0.953 ± 0.04; with 17-AAG (500 nM), 0.249 ± 0.015; in the assay with 17-AAG (1000 nM), 0.234 ± 0.011.

In the case of HCC202 BREAST, the surviving fraction stood at 1.1 ± 0.39 with 2-METHOXYESTRADIOL (0.5 nM); 1.22 ± 0.36 in the assay with 2-METHOXYESTRADIOL (1 nM); 1.12 ± 0.29 in the assay with 2-METHOXYESTRADIOL (5 nM); 1.02 ± 0.19 in the assay with 2-METHOXYESTRADIOL (10 nM); 1.23 ± 0.062 with 2-METHOXYESTRADIOL (50 nM); 1.04 ± 0.27 with 2-METHOXYESTRADIOL (100 nM). For the same test system, the surviving fraction was 0.713 ± 0.32 with 2-METHOXYESTRADIOL (500 nM); 0.564 ± 0.23 with 2-METHOXYESTRADIOL (1000 nM); 0.965 ± 0.13 with 17-AAG (0.5 nM); 0.988 ± 0.31 with 17-AAG (1 nM); 0.715 ± 0.081 with 17-AAG (5 nM); 0.537 ± 0.17 with 17-AAG (10 nM). For the same test system, the surviving fraction with 17-AAG (50 nM) was found to be 0.264 ± 0.053; with 17-AAG (100 nM), 0.177 ± 0.021; with 17-AAG (500 nM) it was 0.171 ± 0.038; with 17-AAG (1000 nM) it was 0.161 ± 0.027.

In the case of COLO320DM LARGE INTESTINE, the surviving fraction with 2-METHOXYESTRADIOL (0.5 nM) was 1.14 ± 0.11; with 2-METHOXYESTRADIOL (1 nM), 1.11 ± 0.12; in the assay with 2-METHOXYESTRADIOL (5 nM) it was 1.08 ± 0.15; with 2-METHOXYESTRADIOL (10 nM) it was 1.08 ± 0.078; in the assay with 2-METHOXYESTRADIOL (50 nM), 1.09 ± 0.15; with 2-METHOXYESTRADIOL (100 nM) it was 0.965 ± 0.056. The surviving fraction with 2-METHOXYESTRADIOL (500 nM) was found to be 0.3693 ± 0.0033; with 2-METHOXYESTRADIOL (1000 nM), 0.266 ± 0.0093; with 17-AAG (0.5 nM), 1.04 ± 0.084; in the assay with 17-AAG (1 nM), 0.959 ± 0.094; in the assay with 17-AAG (5 nM) it was 1.05 ± 0.038; with 17-AAG (10 nM), 1.17 ± 0.075. Further, the surviving fraction with 17-AAG (50 nM) was 1.26 ± 0.41; with 17-AAG (100 nM) it was 0.955 ± 0.16; with 17-AAG (500 nM), 0.505 ± 0.032; in the assay with 17-AAG (1000 nM) it was 0.286 ± 0.048.
